“Also recorded” adds a separate entry of the source. Like-named read-outs stand apart in the source and are kept apart here.
Tests used:
[1] = cited from earlier work
interleukin-1β (IL-1β) [2] = target: T1, interleukin-1β (IL-1β) (Homo sapiens, UniProt P01584); assay type: binding; details: IL-1β in LDAO/10MAG reverse micelles; for extent of binding across the protein surface (in words): Figure 1
[3] = alkane/water partitioning by simple NMR method; assay type: physicochemical; details: alkane (pentane)/water partitioning
interleukin-1β (IL-1β) [4] = target: T1, interleukin-1β (IL-1β); assay: ethanol titration under standard bulk conditions compared with RM titration

T1 sequence (P01584 117-269): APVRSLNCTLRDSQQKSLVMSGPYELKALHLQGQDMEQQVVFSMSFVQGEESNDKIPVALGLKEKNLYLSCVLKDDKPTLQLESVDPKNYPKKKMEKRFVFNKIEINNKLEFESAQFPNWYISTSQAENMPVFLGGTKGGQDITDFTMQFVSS

| SMILES | binding affinity (in words) (interleukin-1β (IL-1β) [2]) | extent of binding across the protein surface (in words) (interleukin-1β (IL-1β) [2]) | also measured |
| --- | --- | --- | --- |
| CCCCCCCCCCCC[N+](C)(C)[O-] [LDAO] |  |  | pKa [1]: ~ 5 |
| CNC(C)=O [N-methylacetamide] | relatively weak binding affinities; also recorded: more diffuse and weak | relatively sparse binding across the protein surface |  |
| CC#N [acetonitrile] | more diffuse and weak | relatively sparse binding across the protein surface | fraction of molecules retained in the RM [3]: over one-third; binding affinity (in words) (interleukin-1β (IL-1β) [2]; listed as Acetonitrile): relatively weak binding affinities |
| CCO [ethanol] | more specific and with a relatively higher affinity | binding is limited to fewer sites | binding in RMs compared with bulk (in words) (interleukin-1β (IL-1β) [4]): binds slightly more weakly to the protein in RMs than in bulk; binding affinity (in words) (interleukin-1β (IL-1β) [2]; listed as Ethanol): relatively high binding affinity within a narrow Kd range |
| c1c[nH]cn1 [imidazole] | more specific and with a relatively higher affinity | bind at a larger number of sites |  |
| CN [methylammonium] |  | bind at a larger number of sites |  |
| c1cncnc1 [pyrimidine] |  | bind at a larger number of sites | fraction of molecules retained in the RM [3]: over one-third |

Source: paper PMC7051831 (ACS chemical biology, 2019)
